Measurements published in ChEMBL document CHEMBL1201862, “PubChem BioAssay data set” (2004).
Activity calls are given as the source filed them.

What was measured:
[1] = target: Histone-lysine N-methyltransferase NSD2 (Homo sapiens, UniProt O96028); type: biochemical
[2] = target: T1, Replicative DNA helicase DnaB (Mycobacterium tuberculosis, UniProt P9WMR3); assay: DnaB intein splicing inhibitors, dose response, biochemical, cell-free fluorescence (AID 449749); type: functional
T1 sequence (P9WMR3 whole entry): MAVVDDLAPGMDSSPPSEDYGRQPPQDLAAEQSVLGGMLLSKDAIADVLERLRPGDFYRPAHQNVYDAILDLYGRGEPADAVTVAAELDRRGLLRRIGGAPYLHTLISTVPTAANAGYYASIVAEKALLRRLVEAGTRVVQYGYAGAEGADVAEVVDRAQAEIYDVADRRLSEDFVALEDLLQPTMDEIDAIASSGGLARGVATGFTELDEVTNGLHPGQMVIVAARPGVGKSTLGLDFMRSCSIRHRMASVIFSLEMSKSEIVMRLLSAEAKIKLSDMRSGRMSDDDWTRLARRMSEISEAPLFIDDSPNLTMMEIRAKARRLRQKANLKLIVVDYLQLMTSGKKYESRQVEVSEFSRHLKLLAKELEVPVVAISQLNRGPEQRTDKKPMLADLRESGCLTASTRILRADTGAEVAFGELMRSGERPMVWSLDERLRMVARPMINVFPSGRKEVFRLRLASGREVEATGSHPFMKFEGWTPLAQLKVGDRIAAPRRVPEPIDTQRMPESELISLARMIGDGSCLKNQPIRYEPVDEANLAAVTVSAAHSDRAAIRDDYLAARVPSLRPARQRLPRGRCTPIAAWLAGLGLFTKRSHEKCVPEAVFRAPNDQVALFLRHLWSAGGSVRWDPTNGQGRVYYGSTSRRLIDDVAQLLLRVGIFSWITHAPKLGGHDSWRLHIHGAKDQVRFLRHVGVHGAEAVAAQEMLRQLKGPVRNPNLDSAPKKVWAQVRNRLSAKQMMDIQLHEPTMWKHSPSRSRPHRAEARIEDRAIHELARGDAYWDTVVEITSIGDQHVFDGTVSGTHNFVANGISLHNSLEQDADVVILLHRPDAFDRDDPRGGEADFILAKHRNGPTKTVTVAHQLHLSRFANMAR

Protein RecA = target: T2, Protein RecA (Mycobacterium tuberculosis, UniProt P9WHJ3); assay: Fluorescence Cell-Free Homogeneous Dose Retest to Identify Inhibitors of RecA-Intein Splicing Activity. [Related pubchem assays (depositor defined):AID2097, AID2223, AID489010, AID492950]; type: functional
T2 sequence (P9WHJ3 whole entry): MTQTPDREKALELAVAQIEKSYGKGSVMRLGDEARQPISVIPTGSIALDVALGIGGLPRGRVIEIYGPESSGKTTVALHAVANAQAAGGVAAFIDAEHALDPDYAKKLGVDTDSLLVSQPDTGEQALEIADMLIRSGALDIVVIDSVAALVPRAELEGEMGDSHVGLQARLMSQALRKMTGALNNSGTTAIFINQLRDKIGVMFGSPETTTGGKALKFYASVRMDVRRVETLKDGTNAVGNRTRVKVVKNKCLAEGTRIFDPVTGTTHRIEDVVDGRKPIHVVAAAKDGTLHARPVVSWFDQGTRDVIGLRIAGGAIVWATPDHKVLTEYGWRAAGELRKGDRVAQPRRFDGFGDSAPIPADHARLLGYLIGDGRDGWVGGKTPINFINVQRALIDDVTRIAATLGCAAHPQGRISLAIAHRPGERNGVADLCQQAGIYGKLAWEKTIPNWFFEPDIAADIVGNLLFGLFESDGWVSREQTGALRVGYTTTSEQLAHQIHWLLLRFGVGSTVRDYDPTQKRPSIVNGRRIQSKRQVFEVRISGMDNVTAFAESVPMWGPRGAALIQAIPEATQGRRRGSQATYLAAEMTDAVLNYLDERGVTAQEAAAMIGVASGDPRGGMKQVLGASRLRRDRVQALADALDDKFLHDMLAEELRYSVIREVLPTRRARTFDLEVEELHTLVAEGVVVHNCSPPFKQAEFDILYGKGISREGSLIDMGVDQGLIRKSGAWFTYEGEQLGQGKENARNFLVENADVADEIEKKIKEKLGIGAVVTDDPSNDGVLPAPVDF

Caspase-6 = Caspase-6 (Homo sapiens, UniProt P55212); assay: human caspase-6 inhibitors, dose response, biochemical, VEID-R110 fluorescence, cherry-pick (AID 720632)
[3] = target: DNA (cytosine-5)-methyltransferase 1 (Homo sapiens, UniProt P26358); assay: DNMT1 methyltransferase inhibitors, confirmation, biochemical, fluorescent molecular beacon (AID 602386); type: functional
[4] = Luminescence Cell-Based Dose Response to Identify Activators of Luciferase Translation or Activity in H4-C Neuroglioblastoma Cells. [Related pubchem assays: 1829 (Project Summary), 1814 (Primary HTS)]; type: functional
[5] = Luminescence Cell-Based Dose Response HTS to Identify Activators of Luciferase Translation or Activity in H4 […] Cells. [Related pubchem assays: 1829 (Project Summary), 1814 (Primary HTS)]; type: functional
[6] = Luminescence Cell-Based Dose Confirmation to Identify Activators of 5'UTR Stem-Loop Driven Alpha-Synuclein mRNA Translation in H4 Neuroglioblastoma Cells. [Related pubchem assays: 1829 (Project Summary), 1814 (Primary HTS)]; type: functional
H4 = assay: Luminescence Cell-Based Dose Response HTS to Identify Activators of 5'UTR Stem-Loop Driven Prion Protein mRNA Translation in H4 Neuroglioblastoma Cells. [Related pubchem assays: 1829 (Project Summary), 1814 (Primary HTS)]; type: functional; details: Homo sapiens
Cytochrome P450 2D6 = Cytochrome P450 2D6 (Homo sapiens, UniProt P10635);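 note: CYP2D6 member of a cytochrome P450 panel assay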
[7] = Luminescence Cell-Based Dose Retest to Confirm Inhibitors of Cancer Stem Cells. [Related pubchem assays (depositor defined):AID2717, AID2721]; type: functional; details: Homo sapiens
[8] = Luminescence Cell-Based Dose Response to Identify Activators of 5'UTR Stem-Loop Driven Prion Protein mRNA Translation in H4-C Neuroglioblastoma Cells. [Related pubchem assays: 1829 (Project Summary), 1814 (Primary HTS)]; type: functional
[9] = target: Glutathione-S-transferase (Schistosoma japonicum, UniProt Q26513); assay: biotin-GST/anti-GST TR-FRET signal inhibitors, dose response, artefact control for Vif-APOBEC3G degradation inhibitor project, biochemical (AID 1117362); type: functional
Large T antigen = Large T antigen (Simian virus 40, UniProt P03070); type: functional, Betapolyomavirus macacae;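 note: Confirmatory-stage PubChem screen for compounds that inhibit SV40 T antigen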
14-3-3 protein gamma = 14-3-3 protein gamma (Homo sapiens, UniProt P61981); assay: modulators of 14-3-3 gamma client binding – dose response (AID 711); type: functional
[10] = inhibitors of Vif binding to APOBEC3G peptide, primary screen, biochemical, TR-FRET, GST-Vif 1-94, biotin-A3G peptide, dose response retest (AID 1117319); type: functional;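 note: TR-FRET signal of purified GST-Vif binding a biotinylated A3G peptide; inhibitors lower the FRET signal by blocking Vif and A3G binding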
[11] = target: Voltage-dependent T-type calcium channel subunit alpha-1H (Homo sapiens, UniProt O95180); type: functional;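 note: channel activity triggered by adding a high calcium stimulation buffer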
Ephrin type-A receptor 4 = Ephrin type-A receptor 4 (Mus musculus, UniProt Q03137); assay: inhibitors of EphA4 binding to KYL peptide, primary screen, biochemical, colorimetric, mouse EphA4 (AID 689); type: functional

Sequence of Glutathione-S-transferase (Q26513 whole entry): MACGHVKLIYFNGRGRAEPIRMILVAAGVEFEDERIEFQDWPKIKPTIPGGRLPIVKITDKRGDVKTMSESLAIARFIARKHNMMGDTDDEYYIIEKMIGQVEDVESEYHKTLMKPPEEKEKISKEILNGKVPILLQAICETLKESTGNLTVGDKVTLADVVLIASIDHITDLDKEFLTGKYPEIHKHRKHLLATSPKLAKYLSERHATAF
Sequence of Cytochrome P450 2D6 (P10635 whole entry): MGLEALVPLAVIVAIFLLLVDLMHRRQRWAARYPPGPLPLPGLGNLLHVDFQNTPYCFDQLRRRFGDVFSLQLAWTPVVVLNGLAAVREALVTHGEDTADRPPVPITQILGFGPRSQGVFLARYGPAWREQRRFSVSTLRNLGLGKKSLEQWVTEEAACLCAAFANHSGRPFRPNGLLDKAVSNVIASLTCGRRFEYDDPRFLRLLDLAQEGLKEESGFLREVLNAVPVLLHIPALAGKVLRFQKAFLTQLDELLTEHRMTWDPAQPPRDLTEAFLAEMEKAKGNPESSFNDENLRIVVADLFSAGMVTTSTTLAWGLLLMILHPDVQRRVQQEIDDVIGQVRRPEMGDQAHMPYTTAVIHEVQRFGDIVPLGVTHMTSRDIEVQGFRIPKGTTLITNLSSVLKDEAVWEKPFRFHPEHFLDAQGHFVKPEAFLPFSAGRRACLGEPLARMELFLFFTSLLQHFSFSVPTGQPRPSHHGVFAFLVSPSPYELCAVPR
Sequence of Large T antigen (P03070 whole entry): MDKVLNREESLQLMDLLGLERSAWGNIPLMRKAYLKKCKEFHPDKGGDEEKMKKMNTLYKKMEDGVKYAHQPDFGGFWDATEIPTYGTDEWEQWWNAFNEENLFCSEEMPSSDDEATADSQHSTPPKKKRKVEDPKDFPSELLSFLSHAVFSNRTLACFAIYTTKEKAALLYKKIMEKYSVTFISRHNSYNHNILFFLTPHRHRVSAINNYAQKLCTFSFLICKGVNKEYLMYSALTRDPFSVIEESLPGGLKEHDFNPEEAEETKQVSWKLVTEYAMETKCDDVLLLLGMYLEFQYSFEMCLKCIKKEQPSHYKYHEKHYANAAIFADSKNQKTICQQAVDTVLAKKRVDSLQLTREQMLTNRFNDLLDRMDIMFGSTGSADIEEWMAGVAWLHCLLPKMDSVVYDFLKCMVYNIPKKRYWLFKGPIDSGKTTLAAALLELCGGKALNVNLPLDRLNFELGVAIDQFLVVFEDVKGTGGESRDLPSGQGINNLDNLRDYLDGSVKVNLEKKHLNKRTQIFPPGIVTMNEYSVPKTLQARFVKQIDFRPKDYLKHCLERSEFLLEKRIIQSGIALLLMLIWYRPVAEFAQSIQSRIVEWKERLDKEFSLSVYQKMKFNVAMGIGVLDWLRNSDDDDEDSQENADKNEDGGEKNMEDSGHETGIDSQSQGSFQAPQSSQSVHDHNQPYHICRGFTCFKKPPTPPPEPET
Sequence of Caspase-6 (P55212 24-179 limits assumed): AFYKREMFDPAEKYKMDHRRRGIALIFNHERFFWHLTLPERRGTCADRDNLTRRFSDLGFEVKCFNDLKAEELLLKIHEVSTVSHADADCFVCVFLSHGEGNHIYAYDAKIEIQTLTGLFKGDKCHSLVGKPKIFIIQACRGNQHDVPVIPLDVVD
Sequence of Caspase-6 (P55212 194-293 limits assumed): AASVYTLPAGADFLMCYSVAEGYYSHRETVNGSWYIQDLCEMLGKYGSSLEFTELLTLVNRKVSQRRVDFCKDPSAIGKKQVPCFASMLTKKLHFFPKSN
Sequence of DNA (cytosine-5)-methyltransferase 1 (P26358 whole entry): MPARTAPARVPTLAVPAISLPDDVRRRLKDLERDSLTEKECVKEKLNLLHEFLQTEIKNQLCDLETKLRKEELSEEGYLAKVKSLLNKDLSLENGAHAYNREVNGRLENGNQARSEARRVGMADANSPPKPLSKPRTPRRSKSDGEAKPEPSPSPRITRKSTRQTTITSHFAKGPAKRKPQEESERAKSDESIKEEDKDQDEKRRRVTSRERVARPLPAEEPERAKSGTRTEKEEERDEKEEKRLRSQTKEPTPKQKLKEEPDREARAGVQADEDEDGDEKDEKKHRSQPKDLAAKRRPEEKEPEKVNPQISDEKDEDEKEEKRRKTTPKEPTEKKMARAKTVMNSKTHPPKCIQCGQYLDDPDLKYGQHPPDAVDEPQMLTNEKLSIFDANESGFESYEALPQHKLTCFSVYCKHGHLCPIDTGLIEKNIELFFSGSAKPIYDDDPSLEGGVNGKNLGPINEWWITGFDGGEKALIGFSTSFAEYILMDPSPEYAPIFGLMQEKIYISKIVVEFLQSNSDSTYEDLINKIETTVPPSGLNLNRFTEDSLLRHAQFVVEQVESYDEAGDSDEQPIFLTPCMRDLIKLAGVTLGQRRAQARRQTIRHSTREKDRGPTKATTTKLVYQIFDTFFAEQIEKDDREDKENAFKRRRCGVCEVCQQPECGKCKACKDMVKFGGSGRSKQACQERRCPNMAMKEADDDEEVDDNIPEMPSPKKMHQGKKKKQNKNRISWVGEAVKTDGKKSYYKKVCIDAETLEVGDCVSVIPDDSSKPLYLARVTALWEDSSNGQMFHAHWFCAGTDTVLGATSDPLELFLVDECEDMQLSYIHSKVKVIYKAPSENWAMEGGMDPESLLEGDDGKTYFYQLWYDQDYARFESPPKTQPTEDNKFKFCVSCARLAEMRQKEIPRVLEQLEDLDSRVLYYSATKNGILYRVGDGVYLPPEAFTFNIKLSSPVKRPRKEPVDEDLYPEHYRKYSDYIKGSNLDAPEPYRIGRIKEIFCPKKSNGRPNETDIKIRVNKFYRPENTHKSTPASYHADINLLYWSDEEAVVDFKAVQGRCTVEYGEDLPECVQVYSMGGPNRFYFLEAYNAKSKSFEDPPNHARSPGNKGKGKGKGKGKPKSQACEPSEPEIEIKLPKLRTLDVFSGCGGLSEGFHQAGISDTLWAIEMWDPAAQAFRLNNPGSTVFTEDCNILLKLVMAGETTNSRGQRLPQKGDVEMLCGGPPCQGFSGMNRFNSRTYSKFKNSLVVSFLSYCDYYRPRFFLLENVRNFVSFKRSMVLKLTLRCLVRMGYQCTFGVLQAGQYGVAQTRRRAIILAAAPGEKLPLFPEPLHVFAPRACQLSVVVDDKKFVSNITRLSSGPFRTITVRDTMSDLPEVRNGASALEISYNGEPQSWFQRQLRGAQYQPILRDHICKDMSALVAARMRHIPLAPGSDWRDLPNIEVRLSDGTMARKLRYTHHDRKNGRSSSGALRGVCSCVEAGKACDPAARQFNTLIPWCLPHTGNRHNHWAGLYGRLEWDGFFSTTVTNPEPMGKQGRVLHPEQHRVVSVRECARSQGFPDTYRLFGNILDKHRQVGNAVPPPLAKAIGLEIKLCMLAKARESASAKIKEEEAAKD
Sequence of Histone-lysine N-methyltransferase NSD2 (O96028 whole entry): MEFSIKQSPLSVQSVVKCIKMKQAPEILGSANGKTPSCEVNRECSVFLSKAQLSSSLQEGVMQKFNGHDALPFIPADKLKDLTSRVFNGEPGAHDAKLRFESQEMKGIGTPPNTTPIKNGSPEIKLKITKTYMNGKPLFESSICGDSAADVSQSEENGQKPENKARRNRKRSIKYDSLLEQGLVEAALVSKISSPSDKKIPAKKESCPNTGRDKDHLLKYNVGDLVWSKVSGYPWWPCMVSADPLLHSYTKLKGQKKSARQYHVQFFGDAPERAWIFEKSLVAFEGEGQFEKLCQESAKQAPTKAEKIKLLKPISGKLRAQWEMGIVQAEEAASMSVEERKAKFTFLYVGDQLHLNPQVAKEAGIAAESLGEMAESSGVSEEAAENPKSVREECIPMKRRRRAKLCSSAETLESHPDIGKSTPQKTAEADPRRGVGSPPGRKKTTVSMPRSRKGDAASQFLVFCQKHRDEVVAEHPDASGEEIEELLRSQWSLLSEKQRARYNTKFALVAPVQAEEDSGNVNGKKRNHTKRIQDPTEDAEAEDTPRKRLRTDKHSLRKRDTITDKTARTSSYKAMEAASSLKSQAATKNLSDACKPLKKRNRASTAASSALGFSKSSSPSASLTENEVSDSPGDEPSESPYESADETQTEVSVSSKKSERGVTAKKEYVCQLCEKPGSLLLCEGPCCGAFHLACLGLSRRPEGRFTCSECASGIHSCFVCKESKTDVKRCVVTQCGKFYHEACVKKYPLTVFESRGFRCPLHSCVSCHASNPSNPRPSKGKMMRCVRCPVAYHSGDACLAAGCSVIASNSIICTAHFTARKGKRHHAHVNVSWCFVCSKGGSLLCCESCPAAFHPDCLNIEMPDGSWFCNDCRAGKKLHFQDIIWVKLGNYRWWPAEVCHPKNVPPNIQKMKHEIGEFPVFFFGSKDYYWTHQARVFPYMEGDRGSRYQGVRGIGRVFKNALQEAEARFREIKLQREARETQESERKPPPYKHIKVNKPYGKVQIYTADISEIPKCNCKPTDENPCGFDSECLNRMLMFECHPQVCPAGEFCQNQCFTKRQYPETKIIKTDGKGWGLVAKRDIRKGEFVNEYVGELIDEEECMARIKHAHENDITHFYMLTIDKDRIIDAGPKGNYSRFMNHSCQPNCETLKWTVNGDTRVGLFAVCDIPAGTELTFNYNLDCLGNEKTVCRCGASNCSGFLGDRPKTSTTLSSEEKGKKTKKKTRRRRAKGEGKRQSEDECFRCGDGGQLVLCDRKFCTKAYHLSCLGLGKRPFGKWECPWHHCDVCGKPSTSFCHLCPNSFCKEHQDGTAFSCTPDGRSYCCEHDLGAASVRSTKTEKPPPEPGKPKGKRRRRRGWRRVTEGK
Sequence of 14-3-3 protein gamma (P61981 whole entry): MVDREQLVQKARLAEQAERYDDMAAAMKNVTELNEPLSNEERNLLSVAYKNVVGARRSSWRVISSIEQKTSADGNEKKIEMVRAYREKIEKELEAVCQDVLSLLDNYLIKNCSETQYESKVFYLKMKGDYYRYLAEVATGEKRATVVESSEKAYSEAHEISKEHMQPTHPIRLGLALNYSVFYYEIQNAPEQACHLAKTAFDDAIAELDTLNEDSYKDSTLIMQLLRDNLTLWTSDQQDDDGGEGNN

NS(=O)(=O)c1ccc(N=Nc2ccc(O)nc2O)cc1
AC50 [1]: > 20 µM (inactive) | AC50 [2]: 53.2 µM (active) | EC50 (Protein RecA): 4.4 µM (active) | AC50 (Caspase-6): 2.07 µM (active) | IC50 [3]: 7.65 µM (active)

Cc1sc(NC(=O)C2CCCCC2)c(C#N)c1-c1ccccc1
EC50 [4]: 0.375 µM (active) | EC50 [5]: < 0.1 µM (active) | EC50 [6]: 0.174 µM (active) | EC50 (H4): 7.76 µM (active) | AC50 (Cytochrome P450 2D6): 7.08 µM (inconclusive) | AC50 [7]: 3.43 µM (active) | EC50 [8]: 0.689 µM (active)

Nc1ccc(-c2nc3cc(N)ccc3n2CCO)cc1
IC50 [9]: > 100 µM (active) | IC50 (Large T antigen): 41.7 µM (active)

CN(C)S(=O)(=O)CC12CCC(CC1=O)C2(C)C (centres undefined)
IC50 (14-3-3 protein gamma): > 50 µM (not active)

CCN(CC)C(=O)c1ccc(CS(=O)(=O)c2ccc(OC)cc2)o1
IC50 [10]: > 100 µM (active)

COc1ccc(C(c2nnnn2Cc2cccs2)N2CCN(c3ccccc3F)CC2)cc1 (centres undefined)
EC50 [11]: 18 µM (active) | IC50 (Ephrin type-A receptor 4): > 100 µM (not active)

C=CCn1c(C)cc(-c2csc(N)n2)c1C
IC50 [9]: 28.2 µM (active)
